Legend:
[1] = system: Rattus norvegicus; experiment: Percent inhibition of apomorphine-induced stereotypy in rat after an intraperitoneal dose of 50 mg/kg; format: functional; details: ip
[2] = Inhibition of apomorphine-induced hyperactivity in mice after peroral administration; format: functional; details: Mus musculus, po
[3] = system: Mus musculus; experiment: Inhibition of apomorphine-induced Hyperactivity in mice, after Intraperitoneal administration; format: functional; details: ip
[4] = system: Mus musculus; experiment: Inhibition of apomorphine-induced climbing behavior in mice, after peroral administration; format: functional; details: po
[5] = Inhibition of apomorphine-induced climbing behavior in mice, after intraperitoneal administration; format: functional; details: Mus musculus, ip
[6] = system: Rattus norvegicus; experiment: Dose required to induce 50% maximum catalepsy in rat administered perorally; format: functional; details: po
[7] = Inhibition of apomorphine-induced hyperactivity behavior in mice, after peroral administration; format: functional; details: Mus musculus, po
[8] = system: Rattus norvegicus; experiment: Inhibition of apomorphine-induced stereotypy in rat, after peroral administration; format: functional; details: po
[9] = (§1) Inhibition of apomorphine-induced climbing behavior in mice, after Intraperitoneal administration; format: functional; details: Mus musculus, ip
[10] = system: Mus musculus; experiment: Inhibition of apomorphine-induced hyperactivity in mice, after peroral administration; format: functional; details: po
[11] = system: Mus musculus; experiment: Inhibition of apomorphine-induced hyperactivity in mice, after peroral administration; details: po
[12] = organism: Rattus norvegicus; experiment: Dose required to induce 50% maximum catalepsy in rat; format: functional
[13] = system: Rattus norvegicus; experiment: Inhibition of apomorphine-induced stereotypy in rat after peroral administration; format: functional; details: po
[14] = system: Rattus norvegicus; experiment: Inhibition of apomorphine-induced stereotypy in Rat, after peroral administration; format: functional; details: po
[15] = system: Mus musculus; experiment: as §1; format: functional; details: ip
[16] = organism: Rattus norvegicus; experiment: Dose required to induce 50% maximum catalepsy in rat

| Structure (SMILES) | inhibition in vivo at 50 mg/kg [1] | ED50 [2] | ED50 [3] | ED50 [4] | ED50 [5] | also measured |
| --- | --- | --- | --- | --- | --- | --- |
| CC1CN(C(=O)c2ccc(F)cc2)CCN1CCCC(=O)c1ccc(F)cc1 (configuration not stated) | 22% | > 200 mg/kg | > 50 mg/kg | > 200 mg/kg | > 50 mg/kg | – |
| CC1CN(Cc2ccc(F)cc2)CCN1CCCC(=O)c1ccc(F)cc1 (configuration not stated) | 19% | > 200 mg/kg | 45 mg/kg | > 200 mg/kg | > 50 mg/kg | – |
| O=C(c1ccc(F)cc1)C1CCN(CCCOc2ccc3c(=O)c(CO)coc3c2)CC1 | – | – | – | – | – | ED50 [6]: 14 mg/kg; ED50 [7]: 1.32 mg/kg; ED50 [8]: 35.9 mg/kg |
| O=C(CCCN1CCC(Cc2ccccc2)CC1)c1ccc(F)cc1 | 46% | – | 12.3 mg/kg | 15.2 mg/kg | 2.85 mg/kg | – |
| O=C(c1ccc(F)cc1)C1CCN(CCCOc2ccc(F)cc2)CC1 | – | 4.9 mg/kg | 1.15 mg/kg | 4.3 mg/kg | – | ED50 [9]: 1.82 mg/kg |
| CC1CN(Cc2ccccc2)CCN1CCCC(O)c1ccc(F)cc1 (configuration not stated) | 16% | > 200 mg/kg | 35 mg/kg | > 200 mg/kg | > 50 mg/kg | – |
| CC1CN(Cc2ccc(F)cc2)CCN1CCCC(O)c1ccc(F)cc1 (configuration not stated) | 48% | > 200 mg/kg | 50 mg/kg | > 200 mg/kg | 30 mg/kg | – |
| CC1CN(C(=O)c2ccc(F)cc2)CCN1CCCC(O)c1ccc(F)cc1 (configuration not stated) | 0% | > 200 mg/kg | > 50 mg/kg | > 200 mg/kg | > 50 mg/kg | – |
| CC1CN(Cc2ccccc2)CCN1CCCC(=O)c1ccc(F)cc1 (configuration not stated) | 30% | – | 30 mg/kg | > 200 mg/kg | 28.2 mg/kg | ED50 [10]: > 200 mg/kg |
| CN1CCN(C2=Nc3cc(Cl)ccc3Nc3ccccc32)CC1 [CLOZAPINE] | – | – | – | – | – | ED50 [11]: 11 mg/kg; ED50 [9]: 7.7 mg/kg; ED50 [12]: 107 mg/kg; ED50 [13]: 85.3 mg/kg |
| O=C(CCCN1CCC(O)(c2ccc(Cl)cc2)CC1)c1ccc(F)cc1 [HALOPERIDOL] | – | – | – | – | – | ED50 [11]: 0.56 mg/kg; ED50 [14]: 1.95 mg/kg; ED50 [9]: 0.21 mg/kg; ED50 [12]: 2.5 mg/kg |
| CCN1CCC[C@H]1CNC(=O)c1c(OC)ccc(Br)c1OC [REMOXIPRIDE] | – | – | – | – | 5.2 mg/kg | ED50 [6]: 64.3 mg/kg; ED50 [7]: 11.1 mg/kg; ED50 [8]: 48.7 mg/kg |
| Cc1nc2n(c(=O)c1CCN1CCC(c3noc4cc(F)ccc34)CC1)CCCC2 [RISPERIDONE] | – | – | – | 0.74 mg/kg | – | ED50 [14]: 3.8 mg/kg; ED50 [15]: 0.2 mg/kg; ED50 [16]: 5 mg/kg |
